Like-named read-outs stand apart in the source and are kept apart here. Where no end group is shown, it is not given here.
Columns and labels:
MRSA (B038 V1S1 A) = type: cell-based, methicillin-resistant S. aureus; details: B038 V1S1 A
Method: (§1) The antimicrobial activity of the peptides was determined through the minimum inhibitory concentrations (MICs) and the minimum bactericidal concentration (MBCs) using the broth-dilution method in a 96-well plate, as described in the previous study. Six bacteria, including the Gram-positive bacteria, S. aureus (ATCC CRM 6538), MRSA (ATCC CRM 12493) and E. faecalis (NCTC 12697), the Gram-negative bacteria, E. coli (ATCC CRM 8739), K. pneumoniae (ATCC CRM 43816) and P. aeruginosa (ATCC CRM 9027), the yeast, C. albicans (ATCC CRM 10231) and clinical isolates, S. aureus (B042 V2E1 A), MRSA (B038 V1S1 A), E. coli (ATCC BAA-2340) and K. pneumoniae (ATCC BAA-1705) were used in these assays to evaluate the antimicrobial potency of the two peptides by determining their MICs and MBCs. All bacteria were cultured in MHB and the yeast, C. albicans was cultured in YPD broth overnight. Then, the microorganisms were sub-cultured and diluted to the final concentration of 2 × 10^5 CFU/mL to 5 × 10^5 CFU/mL. The Norfloxacin and amphotericin B were used as positive controls for the bacteria and yeast, respectively. The assay was repeated three times, with five replicates at each time.

MRSA (ATCC CRM 12493) [1] = type: cell-based, methicillin-resistant S. aureus; details: ATCC CRM 12493
Method: as §1

E. coli (ATCC CRM 8739) [2] = type: cell-based, Escherichia coli; details: ATCC CRM 8739, 24 h
Method: (§2) The MBIC and MBEC assays were performed to measure the inhibition and eradication of bacterial biofilm in the presence of different concentrations of peptides. Gram-positive bacteria were inoculated in Luria–Bertani (LB) broth at 37 °C overnight whereas Gram-negative bacteria were inoculated in tryptic soy broth (TSB), and then sub-cultured until reaching the logarithmic growth phase by measuring the OD values at a wavelength of 550nm. For the MBIC assay, 99 µL of diluted bacterial suspension (5 × 10^5 CFU/mL) was mixed with 1 µL of prepared peptide solutions in the wells of a round-bottomed 96-well plate, achieving the final concentrations from 512 to 1 µM, and then incubated at 37 °C for 24 h in a shaking incubator at 200 revolutions per minute (rpm). After this, the plate was washed twice by PBS and fixed with methanol for 30 min. For MBEC assay, 100 µL of diluted bacterial suspension (5 × 10^5 CFU/mL) was seeded into a round-bottomed 96-well plate and incubated at 37 °C for 24 h in a shaking incubator at 200 rpm to obtain mature biofilm. After this, plates were washed twice by PBS and incubated with different concentrations of peptide solution from 512 to 1 µM at 37 °C for 24 h. Afterwards, the plate was washed twice with PBS and fixed with methanol for 30 min. Then, both MBIC and MBEC plates were stained by 130 μL of 0.1% (g/v) crystal violet solutions for 30 min and washed with PBS until no apparent staining was observed. Evaporating crystal violet stains were dissolved by 33% (v/v) acetic acid, and the absorbance values were measured by a Synergy HT Microplate Reader (BioTek, Minneapolis, MN, USA) set to 595 nm. The minimum concentration that inhibited the formation of biofilm was defined when compared to the negative control group, as the MBIC. The minimum concentration that eradicated the biofilm was defined, when compared to the negative control group, as the MBEC. The biofilm assays were performed in triplicate.

E. faecalis (NCTC 12697) [3] = type: cell-based, Enterococcus faecalis; details: NCTC 12697, 24 h
Method: as §2

[4] = test system: P. aeruginosa (ATCC CRM 9027); type: cell-based, Pseudomonas aeruginosa; details: ATCC CRM 9027, 24 h
Method: as §2

E. coli (ATCC BAA-2340) = type: cell-based, Escherichia coli; details: ATCC BAA-2340
Method: as §1

E. coli (ATCC CRM 8739) [5] = type: cell-based, Escherichia coli; details: ATCC CRM 8739
Method: as §1

[6] = test system: S. aureus (ATCC CRM 6538); type: cell-based, Staphylococcus aureus; details: ATCC CRM 6538
Method: as §1

S. aureus (B042 V2E1 A) = type: cell-based, Staphylococcus aureus; details: B042 V2E1 A
Method: as §1

[7] = test system: C. albicans (ATCC CRM 10231); type: cell-based, Candida albicans; details: ATCC CRM 10231
Method: as §1

[8] = test system: S. aureus (ATCC CRM 6538); type: cell-based, Staphylococcus aureus; details: ATCC CRM 6538, 24 h
Method: as §2

[9] = test system: P. aeruginosa (ATCC CRM 9027); type: cell-based, Pseudomonas aeruginosa; details: ATCC CRM 9027
Method: as §1

MRSA (ATCC CRM 12493) [10] = type: cell-based, methicillin-resistant S. aureus; details: ATCC CRM 12493, 24 h
Method: as §2

[11] = test system: K. pneumoniae (ATCC BAA-1705); type: cell-based, Klebsiella pneumoniae; details: ATCC BAA-1705
Method: as §1

[12] = test system: K. pneumoniae (ATCC CRM 43816); type: cell-based, Klebsiella pneumoniae; details: ATCC CRM 43816
Method: as §1

horse erythrocytes = type: cell-based
Method: The haemolysis assays were performed by incubating prewashed erythrocyte suspension obtained from fresh defibrinated horse blood (TCS Biosciences Ltd., Buckingham, UK) with a range of peptides at final concentrations from 512 to 1 μM, for 2 h at 37 °C. The red cell suspensions were washed with phosphate-buffered saline (PBS) until the supernatant was clear and then diluted with PBS to form a 2% cell suspension. Peptides were 2-fold diluted by the 2% cell suspension to reach the final concentration range from 512 to 1 μM. The haemolysis of the cell suspensions with either 1% (v/v) Triton X-100 or PBS, were considered as positive controls and negative controls, respectively. After incubation, the extent of haemolysis was determined by measuring the absorbance of the supernatant from each sample at 570 nm with a Synergy HT plate reader (BioTek, USA).
Data were analysed using Prism (Version 8.2.1; GraphPad Software, Inc, San Diego, CA, USA). Error bars in the graphs represented standard errors of means (SEM) of nine repeats from three independent tests. The statistical significance was calculated using two-way ANOVA and is indicated as ns (non-significant difference), * (p < 0.05), ** (p < 0.01), *** (p < 0.001), ****(p < 0.0001). The HC10, HC50 and IC50 values were calculated using the online tool AAT Bioquest (https://www.aatbio.com/index.html, accessed on 6 May 2022).

E. faecalis (NCTC 12697) [13] = type: cell-based, Enterococcus faecalis; details: NCTC 12697
Method: as §1

[14] = test system: K. pneumoniae (ATCC CRM 43816); type: cell-based, Klebsiella pneumoniae; details: ATCC CRM 43816, 24 h
Method: as §2

## FVNVLDKIR-NH2 [FV-9, FVNVLDKIR-NH2]
MRSA (B038 V1S1 A)
  MBC: >512 µM
  MIC: >512 µM
MRSA (ATCC CRM 12493) [1]
  MBC: >512 µM
  MIC: >512 µM
E. coli (ATCC CRM 8739) [2]
  MBEC: >512 µM
  MBIC: >512 µM
E. faecalis (NCTC 12697) [3]
  MBEC: >512 µM
  MBIC: >512 µM
[4]
  MBEC: >512 µM
  MBIC: >512 µM
E. coli (ATCC BAA-2340)
  MBC: >512 µM
  MIC: >512 µM
E. coli (ATCC CRM 8739) [5]
  MBC: >512 µM
  MIC: >512 µM
[6]
  MBC: >512 µM
  MIC: >512 µM
S. aureus (B042 V2E1 A)
  MBC: >512 µM
  MIC: >512 µM
[7]
  MBC: >512 µM
  MIC: >512 µM
[8]
  MBEC: >512 µM
  MBIC: >512 µM
[9]
  MBC: >512 µM
  MIC: >512 µM
MRSA (ATCC CRM 12493) [10]
  MBEC: >512 µM
  MBIC: >512 µM
[11]
  MBC: >512 µM
  MIC: >512 µM
[12]
  MBC: >512 µM
  MIC: >512 µM
Horse erythrocytes
  HC10: 504.21 µM
Horse erythrocytes; red cells of horse, 2 h
  HC10: 504.2 µM
E. faecalis (NCTC 12697) [13]
  MBC: >512 µM
  MIC: >512 µM
[14]
  MBEC: >512 µM
  MBIC: >512 µM

## FVNVLDKI-NH2 [FV-8, FVNVLDKI-NH2]
MRSA (B038 V1S1 A)
  MBC: >512 µM
  MIC: >512 µM
MRSA (ATCC CRM 12493) [1]
  MBC: >512 µM
  MIC: >512 µM
E. coli (ATCC CRM 8739) [2]
  MBEC: >512 µM
  MBIC: >512 µM
E. faecalis (NCTC 12697) [3]
  MBEC: >512 µM
  MBIC: >512 µM
[4]
  MBEC: >512 µM
  MBIC: >512 µM
E. coli (ATCC BAA-2340)
  MBC: >512 µM
  MIC: >512 µM
E. coli (ATCC CRM 8739) [5]
  MBC: >512 µM
  MIC: >512 µM
[6]
  MBC: >512 µM
  MIC: >512 µM
S. aureus (B042 V2E1 A)
  MBC: >512 µM
  MIC: >512 µM
[7]
  MBC: >512 µM
  MIC: >512 µM
[8]
  MBEC: >512 µM
  MBIC: >512 µM
[9]
  MBC: >512 µM
  MIC: >512 µM
MRSA (ATCC CRM 12493) [10]
  MBEC: >512 µM
  MBIC: >512 µM
[11]
  MBC: >512 µM
  MIC: >512 µM
[12]
  MBC: >512 µM
  MIC: >512 µM
Horse erythrocytes
  HC10: 504.21 µM
Horse erythrocytes; red cells of horse, 2 h
  HC10: 583.6 µM
E. faecalis (NCTC 12697) [13]
  MBC: >512 µM
  MIC: >512 µM
[14]
  MBEC: >512 µM
  MBIC: >512 µM
